For experiment [1], the system named is THP-1. The experiment is described as follows: Cytotoxicity in human THP-1 cells assessed as reduction in cell viability incubated for 72 hrs by MTT assay. Type of experiment: cell-based. The conditions noted are these: THP-1, 72 h. A general note: Formazan colour is commonly taken as a measure of viable cells.
Experiment [2] addresses NACHT, LRR and PYD domains-containing protein 3 (Homo sapiens, UniProt Q96P20). The experiment is described as follows: Inhibition of NLRP3 in PMA-stimulated human THP-1 cells assessed as reduction in IL-1beta release pre-treated for 24 hrs followed by stimulation with LPS for 3 hrs and ATP for 1 hr by ELISA analysis. Type of experiment: cell-based.

Bounds are passed on as bounds.

Sequence of NACHT, LRR and PYD domains-containing protein 3 (Q96P20 whole entry, the tested form may be a part): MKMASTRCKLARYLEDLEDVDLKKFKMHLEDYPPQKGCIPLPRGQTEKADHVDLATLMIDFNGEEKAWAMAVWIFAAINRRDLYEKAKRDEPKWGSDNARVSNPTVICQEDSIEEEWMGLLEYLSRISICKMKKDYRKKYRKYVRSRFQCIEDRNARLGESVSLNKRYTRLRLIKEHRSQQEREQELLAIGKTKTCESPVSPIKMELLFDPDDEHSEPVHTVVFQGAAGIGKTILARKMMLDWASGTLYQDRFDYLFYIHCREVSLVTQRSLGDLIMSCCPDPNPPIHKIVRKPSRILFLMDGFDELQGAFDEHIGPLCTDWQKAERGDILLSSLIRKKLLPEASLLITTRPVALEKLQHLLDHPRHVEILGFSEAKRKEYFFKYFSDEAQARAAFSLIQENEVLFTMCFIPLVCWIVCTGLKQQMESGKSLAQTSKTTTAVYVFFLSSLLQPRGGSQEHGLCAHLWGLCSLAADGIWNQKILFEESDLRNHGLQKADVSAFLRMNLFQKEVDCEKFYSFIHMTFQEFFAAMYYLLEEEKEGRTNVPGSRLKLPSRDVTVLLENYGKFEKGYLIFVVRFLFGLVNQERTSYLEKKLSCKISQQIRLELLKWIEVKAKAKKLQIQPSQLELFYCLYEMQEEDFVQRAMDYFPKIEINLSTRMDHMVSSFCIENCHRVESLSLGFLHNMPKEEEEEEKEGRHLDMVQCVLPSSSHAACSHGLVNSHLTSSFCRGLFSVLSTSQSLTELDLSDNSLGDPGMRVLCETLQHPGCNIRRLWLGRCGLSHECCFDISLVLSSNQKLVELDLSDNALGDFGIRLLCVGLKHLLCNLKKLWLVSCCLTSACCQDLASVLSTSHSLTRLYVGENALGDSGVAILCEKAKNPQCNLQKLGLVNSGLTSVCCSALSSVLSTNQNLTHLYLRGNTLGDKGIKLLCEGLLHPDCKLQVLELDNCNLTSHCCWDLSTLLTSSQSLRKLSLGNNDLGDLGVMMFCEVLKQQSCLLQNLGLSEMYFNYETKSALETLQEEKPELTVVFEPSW

The term IC50 denotes the concentration at which inhibition is half-maximal. As to `CS(=O)(=O)N1CCCc2ccc(N(S(=O)(=O)c3ccccc3F)S(=O)(=O)c3ccccc3F)cc21`, in experiment [1], the IC50 is over 100 µM.
The same measure, in the same setting: the figure for `CS(=O)(=O)N1CCCc2ccc(N(S(=O)(=O)c3cccc(F)c3)S(=O)(=O)c3cccc(F)c3)cc21` is 71.8 µM; for `CCS(=O)(=O)N(c1ccc2c(c1)N(S(C)(=O)=O)CCC2)S(=O)(=O)CC` it is over 100 µM; for `COc1ccc(S(=O)(=O)N(c2ccc3c(c2)N(S(C)(=O)=O)CCC3)S(=O)(=O)c2ccc(OC)cc2)cc1` it is 90.9 µM.
In the case of `CCCS(=O)(=O)N(c1ccc2c(c1)N(S(C)(=O)=O)CCC2)S(=O)(=O)CCC`, the 50% inhibitory concentration (IC50) in experiment [1] was 98.8 µM.
In the case of `CS(=O)(=O)N1CCCc2ccc(N(S(=O)(=O)c3ccccc3)S(=O)(=O)c3ccccc3)cc21`, in experiment [1], the IC50 is over 100 µM.
On the same count and under the same terms, next, `CS(=O)(=O)N1CCCc2ccc(N(S(=O)(=O)c3ccc(Br)cc3)S(=O)(=O)c3ccc(Br)cc3)cc21`: 66.6 µM.
The same measure, in the same setting: next, `Cc1ccc(S(=O)(=O)N(c2ccc3c(c2)N(S(C)(=O)=O)CCC3)S(=O)(=O)c2ccc(C)cc2)cc1`: 78.4 µM.
Consider `CS(=O)(=O)N1CCCc2ccc(N(S(=O)(=O)c3cc(C(F)(F)F)cc(C(F)(F)F)c3)S(=O)(=O)c3cc(C(F)(F)F)cc(C(F)(F)F)c3)cc21`, for which, in experiment [1], the half-inhibitory concentration (IC50) was 34.7 µM.
With `CC(=O)Nc1ccc(S(=O)(=O)N(c2ccc3c(c2)N(S(C)(=O)=O)CCC3)S(=O)(=O)c2ccc(NC(C)=O)cc2)cc1`, the IC50 in experiment [1] was over 100 µM.
On the same count and under the same terms, next, `CS(=O)(=O)N1CCCc2ccc(N(S(=O)(=O)c3ccc(F)cc3)S(=O)(=O)c3ccc(F)cc3)cc21`: over 100 µM.
Still for that read-out and setting: next, `CS(=O)(=O)N1CCCc2ccc(N(S(=O)(=O)c3ccc([N+](=O)[O-])cc3)S(=O)(=O)c3ccc([N+](=O)[O-])cc3)cc21`: 65.3 µM; `CS(=O)(=O)N1CCCc2ccc(N(S(C)(=O)=O)S(C)(=O)=O)cc21`: over 100 µM.
Still for that read-out and setting: the figure for `CCCCS(=O)(=O)N(c1ccc2c(c1)N(S(C)(=O)=O)CCC2)S(=O)(=O)CCCC` is 95.5 µM.
Turning to `CS(=O)(=O)N1CCCc2ccc(N(S(=O)(=O)c3ccc4ccccc4c3)S(=O)(=O)c3ccc4ccccc4c3)cc21`, the concentration for half-maximal inhibition (IC50) in experiment [1] came to 97.2 µM.
The same measure, in the same setting: the figure for `CS(=O)(=O)N1CCCc2ccc(N(S(=O)(=O)c3ccc(Cl)cc3)S(=O)(=O)c3ccc(Cl)cc3)cc21` is over 100 µM.
Still for that read-out and setting: the figure for `CS(=O)(=O)N1CCCc2ccc(N(S(=O)(=O)c3cccs3)S(=O)(=O)c3cccs3)cc21` is over 100 µM; for `CS(=O)(=O)N1CCCc2ccc(N(S(=O)(=O)c3ccc(C#N)cc3)S(=O)(=O)c3ccc(C#N)cc3)cc21` it is 35.9 µM.
Regarding `CS(=O)(=O)N1CCCc2ccc(N(S(=O)(=O)CCN3C(=O)c4ccccc4C3=O)S(=O)(=O)CCN3C(=O)c4ccccc4C3=O)cc21`, the IC50 in experiment [1] was over 100 µM.
On to `CS(=O)(=O)N1CCCc2ccc(N(S(=O)(=O)c3ccc(C(F)(F)F)cc3)S(=O)(=O)c3ccc(C(F)(F)F)cc3)cc21`, for which the half-inhibitory concentration (IC50) in experiment [1] stood at 8.32 µM.
For the molecule `COC(=O)c1ccc(S(=O)(=O)N(c2ccc3c(c2)N(S(C)(=O)=O)CCC3)S(=O)(=O)c2ccc(C(=O)OC)cc2)cc1`, the half-maximal inhibitory concentration (IC50) in experiment [1] was over 100 µM.
`CS(=O)(=O)N1CCCc2ccc(N(S(=O)(=O)c3cccnc3)S(=O)(=O)c3cccnc3)cc21`: the 50% inhibitory concentration (IC50) in experiment [1] came to 71.1 µM.
The same measure, in the same setting: next, `CS(=O)(=O)N1CCCc2ccc(N(S(=O)(=O)c3cccc4ccccc34)S(=O)(=O)c3cccc4ccccc34)cc21`: over 100 µM; `CS(=O)(=O)N1CCCc2ccc(N(S(=O)(=O)Cc3ccccc3)S(=O)(=O)Cc3ccccc3)cc21`: over 100 µM.
`CS(=O)(=O)N1CCCc2ccc(N(S(=O)(=O)c3ccccc3[N+](=O)[O-])S(=O)(=O)c3ccccc3[N+](=O)[O-])cc21`: the results for the IC50 in experiment [1] and in experiment [2] were over 100 µM and 13.7 µM, respectively.
As for `CS(=O)(=O)N1CCCc2ccc(N(S(=O)(=O)c3ccc(-c4ccccc4)cc3)S(=O)(=O)c3ccc(-c4ccccc4)cc3)cc21`, the half-maximal inhibitory concentration (IC50) in experiment [1] was over 100 µM.
The same measure, in the same setting: next, `CC(C)(O)c1coc(S(=O)(=O)NC(=O)Nc2c3c(cc4c2CCC4)CCC3)c1`: 98.8 µM.

These data come from ChEMBL document CHEMBL4765468, “Development of Novel Tetrahydroquinoline Inhibitors of NLRP3 Inflammasome for Potential Treatment of DSS-Induced Mouse Colitis” (J Med Chem, 2021).
